# Laboratory results published in paper PMC5607274, “An iterative compound screening contest method for identifying target protein inhibitors using the tyrosine-protein kinase Yes” (Scientific Reports, 2017).
# Molecular target: T1, human recombinant Yes [a.a. 2–543 (end)] (Homo sapiens, UniProt P07947)
# T1 construct: human recombinant Yes [a.a; 2–543 (end)]; purchased BPS Bioscience 40488
# Experiment: ADP-Glo kinase assay, inhibition rates of Yes phosphorylation activity (first and second screening)
# Format: biochemical
# Settings: first screening; mean of n = 4 wells; 10 μmol L−1 compound
# Procedure, shortened: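 Hits from a first pass were rescreened after re-dissolution from fresh powder. The first pass reported the mean inhibition rate of quadruplicate wells per compound. Activity was that of recombinant human Yes [a.a. 2–543] kinase, read out with the ADP-Glo ADP-detection method.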
# T1 sequence (P07947 2-543): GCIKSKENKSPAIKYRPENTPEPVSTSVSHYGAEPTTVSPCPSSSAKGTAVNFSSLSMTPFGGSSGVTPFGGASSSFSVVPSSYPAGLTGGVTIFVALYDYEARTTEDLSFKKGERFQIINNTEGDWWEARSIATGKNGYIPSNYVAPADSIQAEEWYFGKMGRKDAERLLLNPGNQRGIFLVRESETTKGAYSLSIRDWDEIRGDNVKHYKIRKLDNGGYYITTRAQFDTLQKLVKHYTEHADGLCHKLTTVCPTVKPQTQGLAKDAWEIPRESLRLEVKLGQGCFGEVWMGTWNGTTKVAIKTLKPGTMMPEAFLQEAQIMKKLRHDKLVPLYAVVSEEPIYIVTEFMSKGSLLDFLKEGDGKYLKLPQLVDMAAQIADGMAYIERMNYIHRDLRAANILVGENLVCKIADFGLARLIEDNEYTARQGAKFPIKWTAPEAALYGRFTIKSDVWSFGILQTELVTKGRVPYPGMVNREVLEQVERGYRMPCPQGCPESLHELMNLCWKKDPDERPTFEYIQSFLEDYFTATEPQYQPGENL
row,SMILES,First screening IR (inhibition rate)
1,FC(F)(F)c1ccnc(Nc2ccc3c(c2)OCO3)n1 [Compound Z285674740],21%
2,FC(F)(F)c1ccnc(Nc2ccc(N3CCOCC3)cc2)n1 [Compound Z285679120],7%
3,FC(F)(F)c1ccnc(Nc2cccc(/C=C/c3ccccn3)c2)n1 [Compound Z285694006],12%
4,O=C1CCCN1c1ccc(Nc2nccc(C(F)(F)F)n2)cc1 [Compound Z285697278],-12%
5,FC(F)(F)c1ccnc(Nc2ccc3[nH]ncc3c2)n1 [Compound Z285702074],0%
6,FC(F)(F)c1ccnc(Nc2ccc3c(c2)OC2(CCCCC2)O3)n1 [Compound Z285712986],4%
7,CN1C/C(=C/c2ccc(-n3cncn3)cc2)c2nc3ccccc3c(C(=O)O)c2C1 [Compound Z285929216],1%
8,CCCN(CCC)S(=O)(=O)c1cccc(S(=O)(=O)N(C)C)c1 [Compound Z285950112],-4%
9,CC1CCCC(C)C12NC(=O)N(CN(C)CC(=O)Nc1ccccc1Cl)C2=O (stereo not drawn) [Compound Z286135428],5%
10,CC(c1ccccc1)N1C(=O)C(=O)N(CC(=O)c2cccn2C)C1=O (stereo not drawn) [Compound Z290228874],-8%
11,Cc1c(C)c(C)c(C(=O)OCC(=O)NCC(=O)N2CCCC2)c(C)c1C [Compound Z291423432],-6%
12,Cc1nn(CCC(=O)O)c2nc(-c3cccs3)cc(C(=O)O)c12 [Compound Z295455358],-2%
13,COc1ccc(-n2cc(-c3ccccc3)c3c(=O)[nH]cnc32)cc1 [Compound Z295463532],-5%
14,O=C(Nc1nc(-c2ccc[nH]2)cs1)c1csc(-c2ccco2)n1 [Compound Z296244664],-6%
15,CC(C)(C)OC(=O)N1CCc2nc(NC(=O)c3csc(-c4ccco4)n3)sc2C1 [Compound Z296452432],-4%
16,CC(Sc1n[nH]c(/C=C/c2ccccc2)n1)c1nc(C(C)(C)C)no1 (stereo not drawn) [Compound Z298272042],12%
17,CCC1CCCCN1S(=O)(=O)c1ccc(S(C)(=O)=O)cc1 (stereo not drawn) [Compound Z300098278],51%
18,Cc1ccc(S(=O)(=O)N2CCCN(S(=O)(=O)N3CC(C)CC(C)C3)CC2)cc1 (stereo not drawn) [Compound Z300467774],4%
19,c1ccc(-c2cn3nc(NCCCN4CCOCC4)sc3n2)cc1 [Compound Z300797868],11%
20,Cc1cc(C)n(CCCNC(=O)c2cc3cc(F)ccc3[nH]2)n1 [Compound Z301214762],8%
21,COc1cccc(/C(O)=C2\C(=O)C(=O)N(CCCn3ccnc3)C2c2cccc([N+](=O)[O-])c2)c1 (stereo not drawn) [Compound Z316156320],-1%
22,COc1ccc(/C(O)=C2\C(=O)C(=O)N(CCCn3ccnc3)C2c2ccc(OC(C)C)cc2)cc1 (stereo not drawn) [Compound Z316169960],12%
23,Fc1ccccc1-n1c(SCc2cccnc2)nnc1-c1ccccc1Cl [Compound Z316264326],1%
24,COc1ccc(-c2cc(CSCC(=O)Nc3ccc4c(c3)CCC4)on2)cc1 [Compound Z317186982],-4%

row,SMILES,First screening IR (inhibition rate)
1,CC(Sc1ncn(-c2ccccc2)n1)c1nc(N)nc(N(C)C)n1 (stereo not drawn) [Compound Z317369924],-4%
2,O=C(Nc1nc2c(s1)CN(Cc1ccccc1)CC2)c1cc(-c2ccco2)[nH]n1 [Compound Z317663344],-10%
3,O=C(NCc1ccc(-n2cccn2)nc1)c1cc(-c2ccco2)[nH]n1 [Compound Z317736476],-2%
4,Cc1ccc(Nc2nccc(C(F)(F)F)n2)cc1S(=O)(=O)N(C)C [Compound Z318799754],6%
5,FC(F)(F)c1ccnc(Nc2ccc(N3CCOCC3)nc2)n1 [Compound Z318998372],-7%
6,CN(C)c1ccc(Nc2nccc(C(F)(F)F)n2)cn1 [Compound Z319012738],2%
7,O=C(c1ccc(Nc2nccc(C(F)(F)F)n2)cc1)N1CCCC1 [Compound Z319025642],-36%
8,CC(C)c1ccc(C(=O)N2CCN(c3ccc(C#N)cn3)CC2)cc1 [Compound Z319076580],-2%
9,O=C(/C=c1/[nH]c(=O)/c(=C\c2ccc(Cl)cc2)s1)c1ccncc1 [Compound Z319403812],8%
10,NC(=O)C(NCCCN1CCc2ccccc21)c1ccccc1 (stereo not drawn) [Compound Z320065982],-17%
11,O=C(Nc1ccc(F)cc1)c1nnc(CSc2ncc(-c3ccccc3)[nH]2)s1 [Compound Z325218452],0%
12,CN(Cc1ccc(C(=O)NCC(F)(F)F)cc1)c1cc(Cl)nc(N)n1 [Compound Z328693166],10%
13,CC(c1cc2ccccc2o1)N(C)c1ncnc2c1cnn2C (stereo not drawn) [Compound Z328694162],-5%
14,Cn1ncc2c(N(Cc3ccccc3F)C3CC3)ncnc21 [Compound Z328694806],-21%
15,CC(c1ccc(F)c(F)c1)N(C)c1ncnc2c1cnn2C (stereo not drawn) [Compound Z328694928],-1%
16,CCc1c(C(=O)Nc2n[nH]c(-c3ccc(C)cc3)n2)cnn1-c1ccccc1 [Compound Z332932578],1%
17,COc1ccc(-c2nc(NC(=O)c3ccc(NC(=O)c4ccccc4)cc3)n[nH]2)cc1 [Compound Z332936670],14%
18,O=C(NCc1cn2ccsc2n1)C1CC1c1ccccc1C(F)(F)F (stereo not drawn) [Compound Z333170264],-2%
19,COc1ccc(/C(O)=C2\C(=O)C(=O)N(CCCn3ccnc3)C2c2cccnc2)cc1OC (stereo not drawn) [Compound Z335452550],-9%
20,CC(NC(c1ccccc1)c1ccccn1)c1ccncc1 (stereo not drawn) [Compound Z335491150],3%
21,O=c1cc(-c2ccccc2)c2cc(Cl)c(OCCO)cc2o1 [Compound Z335913836],15%
22,Cn1nccc1/C=C1\C(=O)Nc2ccccc21 [Compound Z336032014],2%
23,CC(C)n1ncc2cc(/C=C3/CN(C)Cc4c3nc3ccccc3c4C(=O)O)c(Cl)nc21 [Compound Z336032562],54%

# Now from value to compound:
row,First screening IR (inhibition rate),SMILES
1,13%,CN(C)S(=O)(=O)c1cccc(S(=O)(=O)N(C)C)c1 [Compound Z285953016]
2,2%,CNS(=O)(=O)c1cccc(S(=O)(=O)N(C)C)c1 [Compound Z285953204]
3,6%,CC(C)c1cccc(NS(=O)(=O)c2ccc(-n3ncc(Cl)c(Cl)c3=O)cc2)c1 [Compound Z286115224]
4,4%,CC(C)c1ccc(SCc2nc(N)nc(N(C)C)n2)cc1 [Compound Z290622280]
5,6%,CC(NC(=O)C1=NN(c2ccc(F)cc2)C(C(N)=O)C1)c1ccc(F)cc1F (stereo not drawn) [Compound Z295508576]
6,9%,CCOC(=O)c1cc(-c2ccccc2)nc2[nH]c(=O)c3ccccc3c12 [Compound Z295883036]
7,5%,CS(=O)(=O)c1cccc(S(N)(=O)=O)c1 [Compound Z299680982]
8,-8%,CN(C)S(=O)(=O)c1ccc(S(C)(=O)=O)cc1 [Compound Z300114426]
9,-7%,CN(C1CCCCCC1)S(=O)(=O)c1cccc(S(C)(=O)=O)c1 [Compound Z300508876]
10,-5%,CC(C)CN1CCOC(CNC(=O)c2cc3cc(F)ccc3[nH]2)C1 (stereo not drawn) [Compound Z300664804]
11,7%,O=c1[nH]cnc2c1c(-c1ccccc1)cn2-c1ccc(F)cc1 [Compound Z314617634]
12,10%,CCCOc1ccc(C2/C(=C(\O)c3ccc(F)cc3)C(=O)C(=O)N2CCCn2ccnc2)cc1OC (stereo not drawn) [Compound Z316169876]
13,23%,O=C(Nc1cccc(S(=O)(=O)NC2=NCCCCC2)c1)C1(c2cccc(Cl)c2)CC1 [Compound Z316438002]
14,-7%,COc1ccc(-c2cc(CSCc3nc(N)nc(Nc4ccccc4)n3)on2)cc1 [Compound Z317187130]
15,7%,N#CCOc1ccc(Nc2nccc(C(F)(F)F)n2)cc1 [Compound Z318833320]
16,7%,Nc1c(Cl)cc(Nc2nccc(C(F)(F)F)n2)cc1Cl [Compound Z318854232]
17,22%,FC(F)(F)c1ccnc(Nc2ccc3nc(N4CCCC4)sc3c2)n1 [Compound Z318995726]
18,-5%,FC(F)(F)c1ccnc(Nc2ccc(N3CCCC3)nc2)n1 [Compound Z319012342]
19,-2%,Cn1ncc2c(N3CCOC(c4ccc(F)cc4)C3)ncnc21 (stereo not drawn) [Compound Z319092016]
20,-5%,NC(=O)c1ccc(CN(C2CC2)S(=O)(=O)c2cccc(Cl)c2)cc1 [Compound Z319895028]
21,-8%,CN(C)c1nc(N)nc(CSCCC(=O)Nc2ccccc2)n1 [Compound Z327260972]
22,24%,COC(=O)c1cc(-c2ccc(OC)cc2)nc2c1c(C)nn2CCC#N [Compound Z328815354]
23,12%,O=C(CSc1ccc(S(=O)(=O)N2CCCC2)cn1)c1ccc2c(c1)OCO2 [Compound Z335869204]
24,-7%,CC(C)(C)c1nc(SCC(=O)c2ccc3c(c2)CCC3)n[nH]1 [Compound Z335958518]

# Same assay, conditions: second screening, dissolved from fresh powder; n = 4; 10 μmol L−1 compound
row,SMILES,Second screening IR (inhibition rate)
1,CC(C)n1ncc2cc(/C=C3/CN(C)Cc4c3nc3ccccc3c4C(=O)O)c(Cl)nc21 [Compound Z336032562],-2%
